Experimental data published in US20250000850A1, “COMPOSITION USED TO PREVENT OR SUPPRESS REFEEDING SYNDROME” (OTSUKA PHARMACEUTICAL FACTORY, INC., priority 2021, published 2025).

Test: Effect of rapamycin on blood phosphorus concentration after refeeding to protein-undernourished rats
Format: in vivo, male Wistar rats
Conditions: rapamycin 2 mg/mL at 0.75 mL/kg i.p., mean ± SD, n=8
Description: Using male Wistar rats (7 weeks old at time of purchase; Charles River Laboratories Japan, Inc.), a group of rats fed with a purified diet having a protein content of 2.5% (referred to below as “low-protein diet”) for at least 3 weeks, and a group of rats fed with a purified diet having a protein content of 20% (referred to below as “normal diet”) for at least 3 weeks were prepared. […] Each animal had access to tap water ad libitum for at least 3 weeks. After fasting with ad libitum access to water for 24 hours, jugular vein catheterization was performed under isoflurane anesthesia, and the other end of the catheter was passed under the skin, exited from the back, and connected to a syringe containing physiological saline via a harness. The rats were then kept in individual metabolic cages with the catheter being open. Post-operatively, an antibiotic (ampicillin) was injected intramuscularly at a dose of 5 mg/100 μL/rat. After recovery from anesthesia, blood (400 μL) was collected from the catheter placed in the jugular vein, then injected into a tube containing sodium heparin, and stored on ice. The blood was promptly fractionated to obtain plasma, and the inorganic phosphorus concentration in the plasma was promptly measured using a Fuji Dry Chem Slide (produced by Fuji Film Corporation). The rats were grouped into predetermined groups using the obtained measurements and body weight data as indices.
The physiological saline was replaced with a nutrient infusion preparation or an electrolyte preparation at 5 p.m. to start administration to the animals. The nutrient infusion preparation used was Elneopa-NF No. 2 infusion (produced by Otsuka Pharmaceutical Factory Co., Ltd.). The electrolyte formulation used was an electrolyte infusion preparation composed of the electrolyte contained in Elneopa-NF No. 2 infusion. […] Immediately before administering these preparations, either a solvent (dimethyl sulfoxide, produced by Fujifilm Wako Pure Chemicals Corporation; referred to below as “DMSO”) or a solution of 2 mg/mL of rapamycin (produced by Tokyo Chemical Industry Co., Ltd.) whose side effect of inhibiting muscle synthesis was known was intraperitoneally administered by bolus at a dose of 0.75 mL/kg in each case. […]
Starting at 9 a.m. on the day after the start of administration, blood was collected from the abdominal aorta by using a syringe under isoflurane anesthesia. […] The concentration of inorganic phosphorus in the plasma was determined by an enzymatic method (Determiner L, produced by Hitachi Chemical Diagnostics Systems Co., Ltd.).

CO[C@H]1C[C@@H]2CC[C@@H](C)[C@@](O)(O2)C(=O)C(=O)N2CCCC[C@H]2C(=O)O[C@H]([C@H](C)C[C@@H]2CC[C@@H](O)[C@H](OC)C2)CC(=O)[C@H](C)/C=C(\C)[C@@H](O)[C@@H](OC)C(=O)[C@H](C)C[C@H](C)/C=C/C=C/C=C/1C [rapamycin]
Plasma phosphorus concentration after administration (LPD (electrolyte + rapamycin): low-protein diet rats, electrolyte infusion 16 h): 6.1 ± 0.6 mg/dL
Plasma phosphorus concentration after administration (LPD (refeeding + rapamycin): low-protein diet rats, nutrient infusion 16 h): 4.2 ± 0.4 mg/dL
Plasma phosphorus concentration after administration (NPD (electrolyte + rapamycin): normal diet rats, electrolyte infusion 16 h): 6.4 ± 0.4 mg/dL
Plasma phosphorus concentration after administration (NPD (refeeding + rapamycin): normal diet rats, nutrient infusion 16 h): 4.7 ± 0.4 mg/dL
